Results taken from patent US9115117B2, “Substituted piperidine compounds and their use as orexin receptor modulators” (JANSSEN PHARMACEUTICA NV, priority 2013, dated 2015).

How the values were obtained:
rat orexin 1 receptor = rat orexin 1 receptor (Rattus norvegicus, UniProt P56718); assay: Rat orexin 1 receptor radioligand binding; conditions: HEK293 cells stably expressing rat orexin 1 receptor; apparent Ki; read-out: rOX1 Ki
Outline: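 Homogenized cell suspensions competed against 4 nM final of a tritiated oxadiazolyl-pyrrolidinyl thiazole methanone radioligand (35.3 Ci/mmol) in PBS, with DMSO ≤0.1%. Nonspecific binding defined with 10 μM almorexant; after washing and drying, bound radioactivity counted by scintillation.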

human orexin 1 receptor = human orexin 1 receptor (Homo sapiens, UniProt O43613); assay: Human orexin 1 receptor radioligand binding; conditions: CHO cells stably expressing human orexin 1 receptor; apparent Ki; read-out: hOX1 Ki
Outline: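 Homogenized CHO cells stably expressing human orexin 1 receptor, in PBS. They were incubated 60 min at room temperature with 4 nM final tritiated thiazolyl-pyrrolidinyl-methanone radioligand, DMSO ≤0.1%. Nonspecific binding taken with 10 μM almorexant; bound radioactivity collected by GF/C filtration and scintillation-counted.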

human orexin 2 receptor = human orexin 2 receptor (Homo sapiens (Human), UniProt O43614); assay: Human orexin 2 receptor radioligand binding ([3H]-EMPA); conditions: HEK293 stably expressing human orexin 2 receptor; [3H]-EMPA; apparent Ki; read-out: hOX2 Ki
Chain of human orexin 2 receptor (O43614 whole entry): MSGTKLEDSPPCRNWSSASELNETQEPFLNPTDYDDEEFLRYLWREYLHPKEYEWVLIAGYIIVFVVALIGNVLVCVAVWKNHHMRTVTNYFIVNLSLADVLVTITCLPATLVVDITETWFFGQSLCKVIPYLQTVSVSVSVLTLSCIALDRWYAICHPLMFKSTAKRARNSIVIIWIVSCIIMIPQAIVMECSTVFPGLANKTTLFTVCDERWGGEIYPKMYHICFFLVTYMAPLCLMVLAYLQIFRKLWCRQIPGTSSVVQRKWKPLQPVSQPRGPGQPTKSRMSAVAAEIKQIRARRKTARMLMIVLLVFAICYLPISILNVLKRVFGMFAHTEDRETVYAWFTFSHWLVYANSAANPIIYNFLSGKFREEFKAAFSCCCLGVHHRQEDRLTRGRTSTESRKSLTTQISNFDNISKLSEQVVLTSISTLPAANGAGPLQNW
Outline: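 Competition binding with 2 nM final [3H]-EMPA in PBS against homogenized whole-cell suspension; DMSO ≤0.1%. Nonspecific binding defined with […] almorexant. Plates washed with PBS, dried, and bound radioactivity counted by scintillation.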

SMILES | Ki (rat orexin 1 receptor) | Ki (human orexin 1 receptor) | Ki (human orexin 2 receptor)
COc1ccc(C(=O)N2CCC[C@@H](Nc3ncc(C(F)(F)F)cn3)[C@@H]2C)c(-n2nccn2)c1 [Example 95, (4-methoxy-2-(2H-1,2,3-triazol-2-yl)phenyl)((2S,3R)-2-methyl-3-((5-(trifluoromethyl)pyrimidin-2-yl)amino)piperidin-1-yl)methanone] | 81 nM | 103 nM | > 10000 nM
Cc1cnc(C(=O)N2CCC[C@@H](Nc3cnc(C(F)(F)F)cn3)[C@@H]2C)c(-c2ncco2)c1 [Example 83, ((2S,3R)-2-methyl-3-((5-(trifluoromethyl)pyrazin-2-yl)amino)piperidin-1-yl)(5-methyl-3-(oxazol-2-yl)pyridin-2-yl)methanone] | 57 nM | 53 nM | 7000 nM
Cc1ccc(C(=O)N2CCC[C@@H](Nc3nc4ccccc4o3)[C@@H]2C)c(-n2nccn2)n1 [Example 75, ((2S,3R)-3-(benzo[d]oxazol-2-ylamino)-2-methylpiperidin-1-yl)(6-methyl-2-(2H-1,2,3-triazol-2-yl)pyridin-3-yl)methanone] | 23 nM | 40 nM | 9500 nM
Cc1ccc(C(=O)N2CCC[C@@H](Nc3cnc(C(F)(F)F)cn3)[C@@H]2C)c(-n2ccnn2)n1 [Example 96, (6-methyl-2-(1H-1,2,3-triazol-1-yl)pyridin-3-yl)((2S,3R)-2-methyl-3-((5-(trifluoromethyl)pyrazin-2-yl)amino)piperidin-1-yl)methanone] | 81 nM | 47 nM | 3900 nM
C[C@H]1[C@H](Nc2ccc(C(F)(F)F)cn2)CCCN1C(=O)c1cc(Cl)ccc1-n1nccn1 (racemic) [Example 17, (±)-trans-(5-chloro-2-(2H-1,2,3-triazol-2-yl)phenyl)(2-methyl-3-((5-(trifluoromethyl)pyridin-2-yl)amino)piperidin-1-yl)methanone] | 11 nM | 8 nM | 221 nM
CCOc1ccccc1C(=O)N1CCC[C@@H](Nc2ccc(C(F)(F)F)cn2)[C@@H]1C (racemic) [Example 29, (±)-trans-(2-ethoxyphenyl)(2-methyl-3-((5-(trifluoromethyl)pyridin-2-yl)amino)piperidin-1-yl)methanone] | 97 nM | 90 nM | 1400 nM
Cc1cnc(C(=O)N2CCC[C@@H](Nc3cnc(Cl)cn3)[C@@H]2C)c(-c2ncco2)c1 [Example 86, ((2S,3R)-3-((5-chloropyrazin-2-yl)amino)-2-methylpiperidin-1-yl)(5-methyl-3-(oxazol-2-yl)pyridin-2-yl)methanone] | 213 nM | 249 nM | > 10000 nM

Other lines, results leading:

Ki (rat orexin 1 receptor) | Ki (human orexin 1 receptor) | Ki (human orexin 2 receptor) | SMILES
14 nM | 8 nM | 150 nM | Cc1cccc(C(=O)N2CCC[C@@H](Nc3ccc(C(F)(F)F)cn3)[C@@H]2C)c1-n1nccn1 (racemic) [Example 20, (±)-trans-(3-methyl-2-(2H-1,2,3-triazol-2-yl)phenyl)(2-methyl-3-((5-(trifluoromethyl)pyridin-2-yl)amino)piperidin-1-yl)methanone]
28 nM | 26 nM | 281 nM | C[C@H]1[C@H](Nc2nc3cc(Cl)ccc3o2)CCCN1C(=O)c1ccccc1-n1nccn1 (racemic) [Example 45, (±)-trans-(2-(2H-1,2,3-triazol-2-yl)phenyl)(3-((5-chlorobenzo[d]oxazol-2-yl)amino)-2-methylpiperidin-1-yl)methanone]
8 nM | 7 nM | 1300 nM | Cc1ccc(C(=O)N2CCC[C@@H](Nc3cnc(C(F)(F)F)cn3)[C@@H]2C)c(-n2nccn2)c1 [Example 79, (4-methyl-2-(2H-1,2,3-triazol-2-yl)phenyl)((2S,3R)-2-methyl-3-((5-(trifluoromethyl)pyrazin-2-yl)amino)piperidin-1-yl)methanone]
44 nM | 97 nM | 2300 nM | C[C@H]1[C@H](Oc2ncc(C(F)(F)F)cn2)CCCN1C(=O)c1ccccc1-n1nccn1 [Example 103, (2-(2H-1,2,3-triazol-2-yl)phenyl)((2S,3R)-2-methyl-3-((5-(trifluoromethyl)pyrimidin-2-yl)oxy)piperidin-1-yl)methanone]
52 nM | 38 nM | 2700 nM | Cc1ccc(C(=O)N2CCC[C@@H](Nc3ccc(C(F)(F)F)cn3)[C@@H]2C)c(-n2ccnn2)n1 [Example 93, (6-methyl-2-(1H-1,2,3-triazol-1-yl)pyridin-3-yl)((2S,3R)-2-methyl-3-((5-(trifluoromethyl)pyridin-2-yl)amino)piperidin-1-yl)methanone]
18 nM | 25 nM | 529 nM | C[C@H]1[C@H](Nc2cnc(C(F)(F)F)cn2)CCCN1C(=O)c1ccccc1-n1nccn1 (racemic) [Example 38, (±)-trans-(2-(2H-1,2,3-triazol-2-yl)phenyl)(2-methyl-3-((5-(trifluoromethyl)pyrazin-2-yl)amino)piperidin-1-yl)methanone]
54 nM | 62 nM | 1300 nM | Cc1ccc(C(=O)N2CCC[C@@H](Nc3nc4ccccc4o3)[C@@H]2C)c(-n2ccnn2)n1 [Example 76, ((2S,3R)-3-(benzo[d]oxazol-2-ylamino)-2-methylpiperidin-1-yl)(6-methyl-2-(1H-1,2,3-triazol-1-yl)pyridin-3-yl)methanone]
28 nM | 25 nM | 5200 nM | Cc1ccc(C(=O)N2CCC[C@@H](Oc3ncc(C(F)(F)F)cn3)[C@@H]2C)c(-n2nccn2)c1 [Example 102, (4-methyl-2-(2H-1,2,3-triazol-2-yl)phenyl)((2S,3R)-2-methyl-3-((5-(trifluoromethyl)pyrimidin-2-yl)oxy)piperidin-1-yl)methanone]
14 nM | 23 nM | 100 nM | Cc1ccc(-c2ncccn2)c(C(=O)N2CCC[C@@H](Nc3nc4ccccc4o3)[C@@H]2C)n1 [Example 81, ((2S,3R)-3-(benzo[d]oxazol-2-ylamino)-2-methylpiperidin-1-yl)(6-methyl-3-(pyrimidin-2-yl)pyridin-2-yl)methanone]
